Several values for one entry are separate records, joined by “and”; a condition that tells them apart may be missing. Equal values may be shown once. Entries after “also recorded” stand apart in the source; their conditions may differ.
Assays:
[1] = tested on: KC/GRO-α; experiment: KC/GRO-α plasma content after preventive treatment in CYP-induced cystitis model in rats; assay type: in vivo, rat; details: day 9; 20 mg/kg p.o. 12 hours before first CYP, then 7 mg/kg p.o. twice a day for 7 days
Procedure: The effect of chronic preventive administration of Compd. 1 on KC/GRO-α plasma content in a CYP-induced cystitis model in conscious rats was evaluated.
To elicit cystitis, rats received intraperitoneal (i.p.) injections of CYP (75 mg/Kg every third day for three times). A single high dose of Compd. 1 (20 mg/kg) was orally administered 12 hours before the first CYP treatment; subsequently Compd. 1 (7 mg/kg p.o.) was administered twice a day for 7 days (from day 1 to day 7 from the first CYP administration). The oral dose of 7 mg/kg of Compd. 1 was chosen on the basis of previous evaluations. Animals blood was collected at day 7 (the same day of the last CYP treatment) at day 8 (about 24 hrs after last CYP administration) and at day 9 (about 48 hrs after last CYP administration). Each experimental group was composed of 10 animals, 10 animals treated with CYP+vehicle compound, 10 animals treated with CYP+Compd. 1, and 10 animals (sham) treated with CYP vehicle+vehicle compound.
The same animal was subjected to 3 blood serial samplings in order to evaluate the time-course of inflammatory mediators content. After thawing and centrifuge to remove any aggregates and lipid residues that could interfere with the reading, the samples were evaluated through quantitative analysis of KC/GRO-α.

[2] = tested on: CYP-induced visceral pain; experiment: Chronic preventive treatment in CYP-induced visceral pain model in rats; comparison with Mesna; assay type: in vivo, rat; details: 7 mg/kg twice daily p.o. for 7 days
Procedure: The effect of chronic preventive administration of Compd. 1 in a visceral pain model induced by repeated administration of cyclophosphamide (CYP) in conscious rats was evaluated.
The oral dose of 7 mg/kg of Compd. 1 was chosen on the basis of previous evaluations. Compd. 1 or vehicle was orally administered to animals twice daily (according to the PK profile of the molecule) for 7 days. Mesna_or vehicle was intraperitoneally administered several times a day for 3 days (when CYP was administered).
Repeated treatment with CYP (75 mg/kg i.p. for 3 times, every 3rd day), induced a strong decrease in withdrawal thresholds to noxious stimulus measured at the level of low abdomen and hind-paws. Nociceptive hypersensitivity was evaluated. In the control group, nociceptive thresholds of abdomen and hind-paws were not altered after the treatment with vehicle.
Behavioral testing was performed at 4 different times: • before CYP administration (in order to acquire basal values) • after CYP administration and before treatment with the tested compound, to verify the pathology (in order to acquire pre-treatment values) • after treatment, 42 or 48 hours from the last administration of Compd. 1 or Mesna.

[3] = tested on: CYP-induced urinary bladder cystitis; experiment: Microscopic examination of urinary bladders after chronic administration (histology, immunohistochemistry); assay type: in vivo, rat
Text: At the end of the efficacy study of chronic administration, the urinary bladders were opened, placed in 10% buffered formalin and stored at room temperature until hystomorphological analysis.
Treatment with Compd. […] The induced lesions consisted of apoptosis, erosions of the mucosa, mitoses of the mucosal cells, mucosal hyperplasia, infiltration of inflammatory cells and micro-hemorrhages. Caspase 3 and caspase 9 expression (markers of apoptosis) as well as Ki67 expression (marker for cell proliferation) were reduced in the group treated with Compd. 1.

[4] = tested on: CYP-induced cystitis; experiment: Follow-up up to 10 days after discontinuation of treatment (body weight, survival); assay type: in vivo
[5] = immunohistochemistry, versus CYP group

## C[C@H](C(=O)O)c1ccc(Nc2nc(C(F)(F)F)cs2)cc1 [Compd. 1, (2S)-2-(4-{[4-(trifluoromethyl)-1,3-thiazol-2-yl]amino}phenyl) propanoic acid]
[1]
  GRO-α/KC blood levels: significantly reduces GRO-α/KC blood levels at day 9
[2]
  nociceptive hypersensitivity in hind-paws plantar surface: completely reversed the nociceptive hypersensitivity in hind-paws plantar surface
  withdrawal thresholds in the abdomen: almost complete recovery of withdrawal thresholds in the abdomen
[3]; 7 mg/kg oral twice a day for 6 days after CYP
  inflammatory, degenerative and proliferative lesions of the urinary bladder: clearly reduced or reversed the inflammatory, degenerative and proliferative lesions
[3]; animals of 10/group, 7 mg/kg oral twice a day for 6 days after CYP
  Incidence: Apoptosis epithelial cell, urinary bladder: 3/10 and 3
[3]; [5]
  Caspase 3 and caspase 9 expression (markers of apoptosis): reduced
  Ki67 expression (marker for cell proliferation): reduced; also recorded: lower grade of positivity
[4]; vehicle-treated 50%
  survival: 65%
[4]; versus vehicle-treated animals
  body weight recovery: body weight recovery faster than vehicle-treated animals

Source: patent US12150933B2, “IL-8 inihibitors for use in the treatment of some urological disorders” (DOMPÉ FARMACEUTICI S.P.A., priority 2015, dated 2024)
